Laboratory results: patent US12247320B2, “Multivalent glycopeptides that tightly bind to carbohydrate-binding monoclonal antibody family PGT128” (BRANDEIS UNIVERSITY, priority 2018, dated 2025)

What was measured:
PGT128 = experiment: Binding of radiolabeled, cyclized, glycosylated peptides to PGT128 (Protein G bead capture, scintillation counting); settings: for Kd: after affinity purification with 100 nM PGT128
Procedure: Radioactive Peptides. For binding analysis, translation (50 μL) was carried out in the presence of PDF/MAP and ^3H-histidine for radiolabeling. The crude peptides were purified by Ni-NTA agarose or, if the sequence contained two cysteine residues, was cyclized while captured on the Ni-NTA resin. The peptide eluents were combined and dialyzed as follows. To the combined eluents was added a solution of Triton X-100 in water for a final concentration of 0.1%. Then, the peptides were dialyzed against 0.1% (v/v) Triton X-100 using a Slide-A-Lyzer™ MINI device (0.1 mL capacity, 3.5 kDa MWCO) (ThermoScientific) at room temperature overnight. The dialyzed peptides were retrieved from the devices, transferring to 0.5 mL centrifuge tubes. The peptide solutions were concentrated to dryness by speedvac for the click reaction.
Sequences were screened for their binding to PGT128 as follows. Each glycosylated peptide (20 fmol) was incubated with either 0 nM or 100 nM PGT128, diluted to 20 μL with 1× selection buffer, tumbling for 1 hour at room temperature. While tumbling, Dynabeads™ Protein G (Invitrogen) were equilibrated with 1× selection buffer as follows. Steps were carried out using a multi-channel pipettor where possible. For each sequence, 5 μL of Protein G bead suspension was transferred to a 0.2 mL PCR tube in a strip. Then, 40 μL of 1× selection buffer was added to the beads. The mixture was resuspended by gently vortexing, spun down briefly, and placed on a magnet for 1 minute. The supernatant was removed, and this wash was repeated two more times. The final supernatant was removed just prior to addition of the incubated peptide/antibody mixture. The mixture was allowed to tumble at room temperature for 30 minutes to capture antibodies and bound peptides. Then, the suspension was briefly spun down, placed on a magnet, and the supernatant was transferred to an individual 0.2 mL PCR tube. To wash the beads, 20 μL of 1× selection buffer was added, gently vortexed, spun down briefly, placed on a magnet for 1 minute, and the wash was transferred to the same PCR tube as the supernatant. This wash step was repeated twice more for a total of three washes, saved altogether with the supernatant as the “unbound” fraction. The beads were then resuspended in 40 μL of denaturing elute buffer. The suspension was heated at 95° C. for 5 minutes to denature antibodies, spun down briefly, placed on a magnet for 1 minute, and the eluent was transferred to an individual 0.2 mL PCR tube. The beads were washed with 40 μL of denaturing elute buffer, and the wash was placed into the same tube as the eluent. The combined eluent and wash represented the “bound” fraction. The beads were resuspended in 40 μL of denaturing elute buffer, vortexed, and directly placed into a vial with liquid scintillation cocktail for radioactivity measurements, though it was not included in calculations of fraction bound. Each of the tubes with the “unbound” and “bound” fractions were placed into vials for LSC. The tube in which the antibody and peptides were incubated were also measured by LSC, but not included in calculations of fraction bound.
Cyclized and glycosylated peptides 91-8 (SEQ ID NO:74) and 91-12 (SEQ ID NO:76) (Heavily Biased library) were subject to PGT128 affinity purification. The sequences (0.3 μmol) were each incubated with 100 nM PGT128, diluted to 40 μL with 1× selection buffer, tumbling for 1 hour at room temperature. The antibody/peptide complexes were captured on equilibrated Protein G (10 μL) and washed as described previously. The bound fraction was then eluted as follows. The beads were resuspended in 10 μL of 1× selection buffer and heated at 70° C. for 30 minutes. Then, the suspension was chilled on ice for 5 minutes, and tumbled at room temperature for 10 minutes. The eluent was separated, and the beads were washed with 10 μL of 1× selection buffer. The wash was combined with the eluent as the “bound” fraction. […]

[1] = Solubility seen during reduction and cyclization of the synthetic peptide; type: physicochemical; settings: reduced peptide in 200 mM NH4HCO3 with 10 mM TCEP, not glycosylated
Procedure: Then, 9 mg of crude peptide was reduced and cyclized as follows. Each peptide (1 mM final concentration) was dissolved in 200 mM NH4HCO3 with 10 mM TCEP for a reaction volume of 1332 μL. The reactions were tumbled at room temperature for 50 minutes. At that time, the reactions were buffer-exchanged to remove excess TCEP. […] The pellet was washed six times with 1 mL portions of 200 mM NH4HCO3. Portions of the H-22 reaction were transferred to Centricon-500 spin columns (MWCO 2 kDa) with 300 μL of 200 mM NH4HCO3. The filters were spun down and washed six times with 300 μL of 200 mM NH4HCO3. The solutions were then diluted to 1322 μL with 200 mM NH4HCO3, 5.95 mL of water, and 5.68 mL of MeCN in a 15 mL conical tube. Then, 529 μL of a solution of 5 mM m-dibromoxylene in MeCN was added, for a final concentration of 0.2 mM of m-dibromoxylene and 0.1 mM peptide. The cyclization reactions were tumbled at room temperature and monitored by LC-MS. After 40 minutes, H22 was complete. At that time, 132 μL of 5 mM m-dibromoxylene in MeCN was added to the H-1 reaction to push it to completion (total reaction time: 140 minutes). The reactions were quenched by lowering the pH with formic acid. The solutions were concentrated under reduced pressure and lyophilized overnight.

[2] = before PGT128 affinity purification
[3] = following PGT128 affinity purification

Sequence	Kd (PGT128) [nM]	maximum fraction bound (PGT128; [2]) [%]	maximum fraction bound (PGT128; [3]) [%]	solubility [1]
MAHYSXNHXRHPLYPSVNHRXSYPRIGLLSRIGDIRSASCXLRCFRXRST [91-8cy]	2.73 ± 0.36	69	85	–
XYPNTLNNVYQKCNKYNVIGDIRXARCXHXEHFSSQDQPKSKHKRRYKGF [91-12cy]	7.41 ± 1.29	54	74	–
YTEKHNGIGDIRPAICXNSKNQNHRCNHYQIKLYIHXLXRLPHNYRNS [H-1, Top round 12 PGT128 cluster, Heavily Biased library; made by SPPS with C-terminal biotinyl-lysine]	–	–	–	poor solubility
